Experimental data taken from patent US10195189B2, “2-phenethenyltetrahydro isoquinolines useful as anti-HIV compounds” (priority 2014, dated 2019).

Test system: HIV-1 NL4-3 viral clone expressing Renilla luciferase
Assay: microbe, parasite or virus in culture
Format: cell-based
Conditions: Human immunodeficiency virus 1, NL43, MT2, 96 h
Method in brief: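 MT-2 cells (2×10^4/well) were infected at MOI 0.027 with Renilla-luciferase HIV-1 NL4-3 alongside 3-fold compound dilutions for 96 h. Spread was read by EnduRen luminescence and supernatant infectivity on TZM-bl (48 h, MUG fluorescence). Mock-infected cytotoxicity used AlamarBlue. % inhibition versus solvent was fitted by 4-parameter logistic (0–100% constrained) for EC50/CC50.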

Compound | EC50 [nM]
COc1cc2c(cc1OCc1ccccc1)CCNC2/C=C/c1cccc(-c2ncco2)c1 (centres unmarked) [EC, 2-[3-[(E)-2-(6-Benzyloxy-7-methoxy-1,2,3,4-tetrahydroisoquinolin-1-yl)vinyl]phenyl]oxazole] | 930
COc1cc2c(cc1OCc1ccccc1)CCNC2/C=C/c1cccc(C(=O)O)c1 (centres unmarked) [ER, 3-[(E)-2-(6-benzyloxy-7-methoxy-1,2,3,4-tetrahydroisoquinolin-1-yl)vinyl]benzoic acid] | 10000
COc1cccc(-c2ncc(/C=C/C3NCCc4cc(OCc5ccccc5)c(OC)cc43)cn2)c1 (centres unmarked) [DN] | 2400
COc1cc(Cl)c(/C=C/C2NCCc3cc(OCc4ccccc4)c(OC)cc32)cc1OCc1ccccc1 (centres unmarked) [Example AC, 6-benzyloxy-1-[(E)-2-(5-benzyloxy-2-chloro-4-methoxy-phenyl)vinyl]-7-methoxy-1,2,3,4-tetrahydroisoquinoline] | 87.2
COc1cc2c(cc1OCc1ccccc1)CCNC2/C=C/c1ccc(N2CCCCC2)cc1 (centres unmarked) [EA, 6-Benzyloxy-7-methoxy-1-[(E)-2-[4-(1-piperidyl)phenyl]vinyl]-1,2,3,4-tetrahydroisoquinoline] | 2100
COc1cc2c(cc1OCc1ccccc1)CCNC2/C=C/c1ccc2c(c1)CCCO2 (centres unmarked) [CB, 6-Benzyloxy-1-[(E)-2-chroman-6-ylvinyl]-7-methoxy-1,2,3,4-tetrahydroisoquinoline] | 1550
COc1cc2c(cc1OCc1ccccc1)CCNC2/C=C/c1scnc1C (centres unmarked) [DY, 5-[(E)-2-(6-Benzyloxy-7-methoxy-1,2,3,4-tetrahydroisoquinolin-1-yl)vinyl]-4-methyl-thiazole] | 5510
COc1cc(OC)c(OC)cc1/C=C/C1NCCc2cc(OCc3ccccc3)c(OC)cc21 (centres unmarked) [AQ, 6-Benzyloxy-7-methoxy-1-[(E)-2-(2,4,5-trimethoxyphenyl)vinyl]-1,2,3,4-tetrahydroisoquinoline] | 15.1
CCn1cc(/C=C/C2NCCc3cc(OCc4ccccc4)c(OC)cc32)cn1 (centres unmarked) [Example AL, 6-Benzyloxy-1-[(E)-2-(1-ethylpyrazol-4-yl)vinyl]-7-methoxy-1,2,3,4-tetrahydroisoquinoline] | 2950
COc1cc2c(cc1OCc1ccccc1)CCNC2/C=C/c1ccccc1N(C)C (centres unmarked) [DC, (E)-2-(2-(6-(benzyloxy)-methoxy-1,2,3,4-tetrahydroisoquinolin-1-yl)vinyl)-N,N-dimethylamine] | 830
COc1cc(C)c(CCC2NCCc3cc(OCc4ccccc4)c(OC)cc32)cc1OCc1ccccc1 (centres unmarked) [Example Q, 6-benzyloxy-1-[2-(5-benzyloxy-4-methoxy-2-methyl-phenyl)ethyl]-7-methoxy-1,2,3,4-tetrahydroisoquinoline] | 1360
COc1cc(C)c(/C=C/C2NCCc3cc(OCc4ccccc4)c(OC)cc32)cc1C (centres unmarked) [BV, 6-Benzyloxy-7-methoxy-1-[(E)-2-(4-methoxy-2,5-dimethyl-phenyl)vinyl]-1,2,3,4-tetrahydroisoquinoline] | 304
COc1ccccc1/C=C/C1NCCc2cc(OCc3ccccc3)c(OC)cc21 (centres unmarked) [DG, (E)-6-(benzyloxy)-7-methoxy-1-(2-methoxystyryl)-1,2,3,4-tetrahydroisoquinoline] | 2200
COc1ccc(/C=C/C2NCCc3cc(OCc4ccccc4)c(OC)cc32)cc1CN1CCCCC1 (centres unmarked) [EM, 6-Benzyloxy-7-methoxy-1-[(E)-2-[4-methoxy-3-(1-piperidylmethyl)phenyl]vinyl]-1,2,3,4-tetrahydroisoquinoline] | 320
COc1ccc(/C=C/C2NCCc3cc(OCc4ccccc4)c(OC)cc32)cc1OCc1ccccc1 (centres unmarked) [Example AB, 6-benzyloxy-1-[(E)-2-(3-benzyloxy-4-methoxy-phenyl)vinyl]-7-methoxy-1,2,3,4-tetrahydroisoquinoline] | 146
COc1cc2c(cc1OCc1ccccc1)CCNC2/C=C/c1cn(C(=O)OC(C)(C)C)c2ccccc12 (centres unmarked) [CI, tert-Butyl 3-[(E)-2-(6-benzyloxy-7-methoxy-1,2,3,4-tetrahydroisoquinolin-1-yl)vinyl]indole-1-carboxylate] | 230
COc1cc2c(cc1OCc1ccccc1)CCNC2/C=C/c1ccccc1C (centres unmarked) [Example W, 6-benzyloxy-7-methoxy-1-[(E)-2-(o-tolyl)vinyl]-1,2,3,4-tetrahydroisoquinoline] | 690
COc1ccc(/C=C/C2NCCc3cc(OCc4ccccc4)c(OC)cc32)c(OC)n1 (centres unmarked) [CA, 6-Benzyloxy-1-[(E)-2-(2,6-dimethoxy-3-pyridyl)vinyl]-7-methoxy-1,2,3,4-tetrahydroisoquinoline] | 640
COc1cc2c(cc1OCc1ccccc1)CCNC2/C=C/c1ccc(OC)c(C)c1C (centres unmarked) [EL, 6-Benzyloxy-7-methoxy-1-[(E)-2-(4-methoxy-2,3-dimethyl-phenyl)vinyl]-1,2,3,4-tetrahydroisoquinoline] | 150

Compound | EC50 [nM]
COc1cc2c(cc1OCc1ccccc1)CCNC2/C=C/c1ccc(F)cc1C (centres unmarked) [Example X, 6-benzyloxy-1-[(E)-2-(4-fluoro-2-methyl-phenyl)vinyl]-7-methoxy-1,2,3,4-tetrahydroisoquinoline] | 620
COc1ccc(/C=C/C2NCCc3cc(OCc4ccccc4)c(OC)cc32)cc1 (centres unmarked) [BJ, 6-Benzyloxy-7-methoxy-1-[(E)-2-(4-methoxyphenyl)vinyl]-1,2,3,4-tetrahydroisoquinoline] | 477
COc1ccc(/C=C/C2NCCc3cc(OCc4ccccc4)c(OC)cc32)cc1Br (centres unmarked) [AR, 6-Benzyloxy-1-[(E)-2-(3-bromo-4-methoxy-phenyl)vinyl]-7-methoxy-1,2,3,4-tetrahydroisoquinoline] | 800
COc1cc2c(cc1OCc1ccccc1)CCNC2/C=C/c1ccc2c(c1)CCO2 (centres unmarked) [BM, 6-Benzyloxy-1-[(E)-2-(2,3-dihydrobenzofuran-5-yl)vinyl]-7-methoxy-1,2,3,4-tetrahydroisoquinoline] | 146
COc1cc2c(cc1OCc1ccccc1)CCNC2/C=C/c1cc(OC)c(OC)c(OC)c1 (centres unmarked) [Example AM, 6-Benzyloxy-7-methoxy-1-[(E)-2-(3,4,5-trimethoxyphenyl)vinyl]-1,2,3,4-tetrahydroisoquinoline] | 220
COc1cc2c(cc1OCc1ccccc1)CCNC2/C=C/c1ccc(-c2ccccn2)cc1 (centres unmarked) [DZ, 6-Benzyloxy-7-methoxy-1-[(E)-2-[4-(2-pyridyl)phenyl]vinyl]-1,2,3,4-tetrahydroisoquinoline] | 650
COc1cc2c(cc1OCc1ccccc1)CCNC2/C=C/c1cccc(-c2ccncc2)c1 (centres unmarked) [DQ, 6-(Benzyloxy)-7-methoxy-1-[(E)-2-[3-(pyridin-4-yl)phenyl]ethenyl]-1,2,3,4-tetrahydroisoquinoline] | 126
COc1ccc2cc(/C=C/C3NCCc4cc(OCc5ccccc5)c(OC)cc43)ccc2c1 (centres unmarked) [DI, (E)-6-(benzyloxy)-7-methoxy-1-(2-(6-methoxynaphthalen-2-yl)vinyl)-1,2,3,4-tetrahydroisoquinoline] | 628
CCCCN1CCc2cc(OCc3ccccc3)c(OC)cc2C1/C=C/c1ccc(OC)c(OCc2ccccc2)c1 (centres unmarked) [Example G, 6-Benzyloxy-1-[(E)-2-(3-benzyloxy-4-methoxy-phenyl)vinyl]-2-butyl-7-methoxy-3,4-dihydro-1H-isoquinoline] | 5000
COc1ccc(/C=C/C2c3cc(OC)c(OCc4ccccc4)cc3CCN2C)cc1OCc1ccccc1 (centres unmarked) [Example V, 6-benzyloxy-1-[(E)-2-(3-benzyloxy-4-methoxy-phenyl)vinyl]-7-methoxy-2-methyl-3,4-dihydro-1H-isoquinoline] | 780
COc1cc2c(cc1OCc1ccccc1)CCNC2/C=C/c1ccc(-n2cncn2)cc1 (centres unmarked) [DT, 6-(Benzyloxy)-7-methoxy-1-[(E)-2-[4-(1H-1,2,4-triazol-1-yl)phenyl]ethenyl]-1,2,3,4-tetrahydroisoquinoline] | 157
CCN1CCN(c2ccc(/C=C/C3NCCc4cc(OCc5ccccc5)c(OC)cc43)cc2)CC1 (centres unmarked) [DO, (E)-6-(benzyloxy)-1-(4-(4-ethylpyrazin-1-yl)styryl)-7-methoxy-1,2,3,4-tetrahydroisoquinoline] | 496
COc1cc2c(cc1OCc1ccccc1)CCNC2/C=C/c1ccc2cccnc2c1 (stereo not drawn) [DL, (E)-7-(2-(6-(benzyloxy)-7-methoxy-1,2,3,4-tetrahydroisoquinolin-1-yl)vinyl)quinoline] | 96.9
COc1ccc(/C=C/C2NCCc3cc(OCc4ccccc4)c(OC)cc32)c(F)c1 (centres unmarked) [BR, 6-Benzyloxy-1-[(E)-2-(2-fluoro-4-methoxy-phenyl)vinyl]-7-methoxy-1,2,3,4-tetrahydroisoquinoline] | 1140
CCOC(=O)CCCOc1cc(/C=C/C2NCCc3cc(OCc4ccccc4)c(OC)cc32)ccc1OC (centres unmarked) [CV, Ethyl 4-[5-[(E)-2-(6-benzyloxy-7-methoxy-1,2,3,4-tetrahydroisoquinolin-1-yl)vinyl]-2-methoxy-phenoxy]butanoate] | 100
COc1cc2c(cc1OCc1ccccc1)CCNC2/C=C/c1nccs1 (centres unmarked) [DV, 6-(Benzyloxy)-7-methoxy-1-[(E)-2-(1,3-thiazol-2-yl)ethenyl]-1,2,3,4-tetrahydroisoquinoline] | 29500
COc1cc2c(cc1OCc1ccccc1)CCNC2/C=C/c1ccc2c(c1)OC(F)(F)O2 (centres unmarked) [DF, (E)-6-(benzyloxy)-1-(2-(2,2-difluorobenzo[d][1,3]dioxol-5-yl)vinyl)-7-methoxy-1,2,3,4-tetrahydroisoquinoline] | 5440
COc1cc2c(cc1OCc1ccccc1)CCNC2/C=C/c1ccccc1NC(=O)OC(C)(C)C (centres unmarked) [CW, tert-Butyl N-[2-[(E)-2-(6-benzyloxy-7-methoxy-1,2,3,4-tetrahydroisoquinolin-1-yl)vinyl]phenyl]carbamate] | 5400
COCCOc1ccccc1/C=C/C1NCCc2cc(OCc3ccccc3)c(OC)cc21 (centres unmarked) [DE, (E)-6-(benzyloxy)-7-methoxy-1-(2-(2-methoxyethoxy)styryl)-1,2,3,4-tetrahydroisoquinoline] | 1440
